Assay results as given in patent US9877999B2, “Methods for treating metastatic stage prostate cancer” (Ferring International SA, priority 2008, dated 2018).
Where “and” joins values, the source holds several entries; their conditions need not be identical. Equal entries are not always repeated.

Tests used:
Type in all cases: in vivo, human
[1] = tested on: prostate-specific antigen (PSA); test: PSA failure in prostate cancer patients (clinical study CS21); settings: for proportion of PSA failures: leuprolide 7.5 mg
Method: For this analysis, PSA failure (a secondary endpoint) was defined as two consecutive increases in PSA of 50% and 5 ng/mL compared with nadir. The time to PSA failure was defined as the number of days from first dosing to where an increase in serum PSA of 50% from nadir and 5 ng/mL, measured on two consecutive occasions at least two weeks apart, was noted. The second occasion was the time point of meeting the criterion. PSA failure rates were also analyzed by disease stage and baseline PSA level.
(§1) The secondary efficacy endpoints were: the proportion of patients with testosterone surge during the first 2 weeks of treatment; the proportion of patients with testosterone level ≦0.5 ng/mL at day 3; the percentage change in PSA from baseline to day 28; the probability of testosterone ≦0.5 ng/mL from day 56 through day 364; the levels of serum testosterone, LH, FSH and PSA over time through the study; the time to PSA failure, defined as two consecutive increases of 50%, and at least 5 ng/mL as compared to nadir; degarelix concentration over the first month and trough levels at day 308 and 336; the frequency and size of testosterone increases at day 255 and/or 259 compared to the testosterone level at day 252; the quality of life on days 0, 28, 84, 168 and end of study visit; the frequency and intensity of hot flushes experienced (scored daily from study start until end of study visit). In addition, two further secondary endpoints were added: the probability of sufficient testosterone response from day 28 through day 364 (a patient was considered to have insufficient testosterone response if they had one testosterone value >1.0 ng/mL or two consecutive testosterone values >0.5 ng/mL at day 28 onwards); and the percentage change in PSA from baseline to day 14.
The secondary endpoints, probability of testosterone ≦0.5 ng/mL from day 56 through day 364, time to PSA failure, and probability of sufficient testosterone response from day 28 through day 364 were analyzed by the Kaplan-Meier method.

testosterone = settings: leuprolide 7.5 mg group
Method: The study also evaluated the pharmacokinetics of the degarelix dosing regimens investigated. Finally, the study examined the effects of using the degarelix treatment on patients suffering from different stages of cancer. […] The primary efficacy endpoint was the probability of testosterone levels remaining ≦0.5 ng/mL from day 28 through day 364. […] The primary efficacy endpoint was analyzed for both the ITT and PP analysis sets, with the ITT analysis set considered primary. The primary efficacy endpoint was analyzed using the Kaplan Meier method. For each of the three treatment groups, testosterone response rates with 95% confidence interval (CI) were calculated by log-log transformation of survivor function. […] All secondary efficacy endpoints were analyzed for both the ITT and PP analysis sets, unless otherwise stated. […] The percentage change in PSA from baseline to day 28 endpoint was analyzed by a Wilcoxon test.

[2] = tested on: follicle stimulating hormone (FSH); test: Serum FSH levels over time (clinical study CS21); settings: leuprolide 7.5 mg group
Method: (§2) The study also investigated whether degarelix is safe and effective with respect to achieving and maintaining testosterone suppression to castrate levels, evaluated as the proportion of patients with testosterone suppression ≦0.5 ng/mL during 12 months of treatment. […] The study also evaluated the pharmacokinetics of the degarelix dosing regimens investigated. Finally, the study examined the effects of using the degarelix treatment on patients suffering from different stages of cancer.
(§3) Patients in two treatment groups received a degarelix starting dose of 240 mg at a concentration of 40 mg/mL (240@40) on day 0 administered as two equivalent subcutaneous (s.c.) injections of 120 mg each. Thereafter, patients received 12 additional single s.c. degarelix doses of either 80 mg at a concentration of 20 mg/mL (80@20: degarelix 240/80 mg group) or 160 mg at a concentration of 40 mg/mL (160@40: degarelix 240/160 mg group) administered s.c. every 28 days.
as §1

[3] = tested on: prostate-specific antigen (PSA); test: Serum PSA level change in prostate cancer patients (clinical study CS21); settings: leuprolide 7.5 mg patients who did not receive anti-androgen therapy
Method: All secondary efficacy endpoints were analyzed for both the ITT and PP analysis sets, unless otherwise stated. The proportion of patients with testosterone surge during the first 2 weeks of treatment was analyzed using Fisher's exact test. […] The percentage change in PSA from baseline to day 28 endpoint was analyzed by a Wilcoxon test.

luteinizing hormone (LH) = test: Serum LH levels over time (clinical study CS21); settings: leuprolide 7.5 mg group
Method: as §2, §3, §1

[4] = tested on: serum alkaline phosphatase (S-ALP); test: S-ALP analysis in prostate cancer patients (clinical study CS21); settings: Leuprolide 7.5 mg
Method: Patients with histologically confirmed adenocarcinoma of the prostate (all stages), for whom androgen deprivation therapy was indicated were recruited. Baseline characteristics were well balanced between groups. Approximately half of patients had locally advanced (29.2%) or metastatic (20.5%) disease at baseline. […] Patients receiving leuprolide could also receive bicalutamide for clinical flare protection. The S-ALP levels were measured in each patient at various time points, by taking a blood sample and analyzing for S-ALP. S-ALP levels were measured using a standardized colorimetric assay based on the p-nitrophenyl phosphate AMP buffer method. The normal range for S-ALP is 44-147 IU/L. The S-ALP values in non-metastatic patients serve as controls. An ANOVA analysis with treatment and day as factors and baseline value as covariate was used to determine between treatment differences at Day 364. A repeated measures analysis (incorporating all time points from Day 112) with treatment and day as factors and baseline value as covariate was used to assess between treatment differences from Day 112 to Day 364.

CCNC(=O)[C@@H]1CCCN1C(=O)[C@H](CCCNC(=N)N)NC(=O)[C@H](CC(C)C)NC(=O)[C@@H](CC(C)C)NC(=O)[C@H](Cc1ccc(O)cc1)NC(=O)[C@H](CO)NC(=O)[C@H](Cc1c[nH]c2ccccc12)NC(=O)[C@H](Cc1c[nH]cn1)NC(=O)[C@@H]1CCC(=O)N1 [leuprolide, reference compound] was tested, and the “probability of completing the study without experiencing PSA failure by day 364” value ([1]; leuprolide 7.5 mg group) was 85.9% and ~85.8%, the “proportion of PSA failures” value ([1]; patients with baseline PSA>50 ng/mL) was 40.0% and the “proportion of PSA failures” value ([1]; patients with metastatic disease at baseline) was 36.2%. The “Kaplan-Meier estimate of the probability of testosterone ≦0.5 ng/mL from day 28 to day 364” value (testosterone) was 96.4%, the “patients exhibiting testosterone suppression on day 3” value (testosterone) was “no patients” and the “overall proportion of patients with testosterone ≦0.5 ng/mL from day 28 to day 364” value (testosterone; observed cases analysis) was 96.0%. For the same molecule, the FSH level ([2]; by day 14) was 2.0 IU/L, the “FSH level, peak” value ([2]; day 1) was 22.5 IU/L and the “increase of FSH from baseline” value ([2]; day 1) was 146%. The “Median FSH plateau” value ([2]; from around day 56 until day 364) was “approximately 4.40 IU/L”, the “PSA median percentage reduction from baseline” value ([3]; day 14) was 15.3% and the “PSA median percentage reduction from baseline” value ([3]; day 28) was 61.7%. The “median LH level” value (luteinizing hormone (LH); by day 56, remaining until day 364) was 0.035 IU/L, the “increase of median LH from baseline” value (luteinizing hormone (LH); day 1) was > 400% and the “median LH level, peak” value (luteinizing hormone (LH); day 1) was 31.0 IU/L. For the same molecule, the “S-ALP mean change from baseline” value ([4]; Localized, Day 112) was “+5 IU/L”, the “S-ALP mean change from baseline” value ([4]; Localized, Day 224) was “+7 IU/L” and the “S-ALP mean change from baseline” value ([4]; Localized, Day 364) was “+9 IU/L”. The “S-ALP mean change from baseline” value ([4]; Locally advanced, Day 112) was −1 IU/L, the “S-ALP mean change from baseline” value ([4]; Locally advanced, Day 224) was −1 IU/L and the “S-ALP mean change from baseline” value ([4]; Locally advanced, Day 364) was “+6 IU/L”. For the same molecule, the “S-ALP mean change from baseline” value ([4]; Metastatic (Hb < 130 g/L), Day 112) was −30 IU/L, the “S-ALP mean change from baseline” value ([4]; Metastatic (Hb < 130 g/L), Day 224) was −70 IU/L and the “S-ALP mean change from baseline” value ([4]; Metastatic (Hb < 130 g/L), Day 364) was −10 IU/L. For the same molecule, the “S-ALP mean change from baseline” value ([4]; Metastatic, Day 112) was −20 IU/L, the “S-ALP mean change from baseline” value ([4]; Metastatic, Day 224) was −50 IU/L and the “S-ALP mean change from baseline” value ([4]; Metastatic, Day 364) was 0 IU/L. For the same molecule, the “S-ALP mean change from baseline” value ([4]; baseline PSA 10-20 ng/mL, Day 112) was “+5 IU/L”, the “S-ALP mean change from baseline” value ([4]; baseline PSA 10-20 ng/mL, Day 224) was “+8 IU/L” and the “S-ALP mean change from baseline” value ([4]; baseline PSA 10-20 ng/mL, Day 364) was “+8 IU/L”. For the same molecule, the “S-ALP mean change from baseline” value ([4]; baseline PSA 20-50 ng/mL, Day 112) was “+5 IU/L”, the “S-ALP mean change from baseline” value ([4]; baseline PSA 20-50 ng/mL, Day 224) was “+8.5 IU/L” and the “S-ALP mean change from baseline” value ([4]; baseline PSA 20-50 ng/mL, Day 364) was “+11 IU/L”. The “S-ALP mean change from baseline” value ([4]; baseline PSA < 10 ng/mL, Day 112) was “+4.5 IU/L”, the “S-ALP mean change from baseline” value ([4]; baseline PSA < 10 ng/mL, Day 224) was “+6 IU/L” and the “S-ALP mean change from baseline” value ([4]; baseline PSA < 10 ng/mL, Day 364) was “+7.5 IU/L”. For the same molecule, the “S-ALP mean change from baseline” value ([4]; baseline PSA > 50 ng/mL, Day 112) was −40 IU/L, the “S-ALP mean change from baseline” value ([4]; baseline PSA > 50 ng/mL, Day 224) was −60 IU/L and the “S-ALP mean change from baseline” value ([4]; baseline PSA > 50 ng/mL, Day 364) was “+10 IU/L”.
